Results on one compound are retold here after patent US8362074B2, “Synergistic insecticidal compositions” (priority 1999, dated 2013).

Data set [1] relates to adult male German cockroaches (Blattella germanica). Briefly: Treated dog chow bait test on adult male German cockroaches. The settings on record: 1.00 % active ingredient. In kind it is in vivo. The protocol: In this evaluation, adult male German cockroaches (Blattella germanica) are used. For each test, a 4.0 g portion of ground Purina Dog Chow (Hi-Pro Glo®) is treated with an acetone solution of test compound alone or in combination with a second test compound. After treatment, the acetone is evaporated and the treated dog chow is placed in a ¾ oz plastic cup which is placed in a harborage made of folded sheets of blotter paper placed in a plastic box (16″ L×11″ W×6″ H). The plastic box (test arena) is also fitted with a 1 oz narrow mouth bottle with 2 dental wicks inserted at the mouth. A control box is prepared in the same manner using ground dog chow which has been treated with reagent grade acetone. Each treatment is replicated three times. Into each test arena are placed 20 healthy adult male cockroaches which have been reared in an insectary. The test arenas are then stored at 76° F. and mortality is determined daily by visual examination.

The test system of data set [2] is Helicoverpa zea (cotton bollworm) larvae. The experiment in a line: Treated artificial diet surface test on cotton bollworm larvae. In kind it is in vivo. The protocol:
In this evaluation, Helicoverpa zea (cotton bollworm) larvae are obtained from a laboratory colony. Test compounds are dissolved in 1:1 v/v acetone/water. Plastic bioassay trays (C-D International, Pitman, N.J.) are used as test arenas. Each tray contains 32 open-faced wells, 4.0×4.0×2.5 cm. A portion (5 ml) of a wheat germ-soybean flour-based artificial diet (Southland Products, Lake Village, Ark.) is poured into each well. After the diet hardened, 0.4 ml of test solution is pipetted onto the diet surface in each well. Test solutions are evenly spread over surfaces of diet by picking up the tray and gently tilting it from side to side. Trays are then held in a vented area for about 2 h, until water is no longer pooled on diet surfaces. A single 4-day-old H. zea larva is then placed on the surface of diet in each well. After larval infestation, each well is covered with an adhesive, vented, clear plastic sheet.
All test arenas are held under constant fluorescent light and a temperature of about 27° C. for duration of the assay. Larval mortality is determined at 2, 3, 4 and 7 days after treatment. […] A total of 32 insects were tested for each treatment.

Molecules are shown by their SMILES.

One may read the mortality as the share of the test organisms that died. Take `CC1(C)CNC(=NN=C(/C=C/c2ccc(C(F)(F)F)cc2)/C=C/c2ccc(C(F)(F)F)cc2)NC1` [Compound B, hydramethylnon]: the mortality at 1 % strength was 0% in data set [1] (72 h, 3 days after treatment); 5% in data set [1] (96 h, 4 days after treatment); 28.3% in data set [1] (120 h, 5 days after treatment); 71.7% in data set [1] (144 h, 6 days after treatment); 90% in data set [1] (168 h, 7 days after treatment); 93.3% in data set [1] (192 h, 8 days after treatment). Further, the “% Mortality” value turned out to be 3.1% in data set [2] (100 OB/ml, 2 days after treatment); 3.1% in data set [2] (100 OB/ml, 3 days after treatment); 3.1% in data set [2] (100 OB/ml, 4 days after treatment); 15.6% in data set [2] (100 OB/ml, 7 days after treatment); 0.0% in data set [2] (500 OB/ml, 2 days after treatment); 9.4% in data set [2] (500 OB/ml, 3 days after treatment). In addition, the “% Mortality” value in data set [2] (500 OB/ml, 4 days after treatment) was determined as 18.8%; in data set [2] (500 OB/ml, 7 days after treatment), 40.6%; in data set [2] (1000 OB/ml, 2 days after treatment), 3.1%; in data set [2] (1000 OB/ml, 3 days after treatment), 34.4%; in data set [2] (1000 OB/ml, 4 days after treatment), 50.5%; in data set [2] (1000 OB/ml, 7 days after treatment), 62.5%.
